Source: patent EP0213108A2, “Pharmaceutical preparation containing an antihypotonic as the active agent” (Burghart, Kurt, Dr., priority 1985, dated 1987)
Where a name gives a salt, the structure may show the parent alone.

Test: Pulse and systolic/diastolic blood pressure over time after sublingual aerosol or oral administration
Type: in vivo
Conditions: hydrochloride, oral
Description: Die raschere Wirksamkeit der erfindungsgemäßen pharmazeutischen Zubereitung relativ zu einer konventionellen Zubereitung wird nachfolgen an Hand eine Ausführungsbeispieles näher erläutert.
In einer alkoholischen Lösung wurden hiebei unter Verwendung von Trichlorfluorkohlenwasserstoff als Treibgas 2,5 mg 1-(3'--Hydroxyphenyl)-2-aminoäthanol als Aerosol sublingual verabreicht. In der nachfolgenden Tabelle I sind unter A die Vergleichswerte für den systolischen und den diastolischen Druck über die Zeit bei Versprühen eines Placebos, unter B die Werte für den systolischen und den diastolischen Druck über die Zeit bei Verabreichung von 2,5 mg Base als Aerosol und unter C die systolischen und diastolischen Druckwerte bei Verabreichung der gleichen Wirksubstanz als Hydrochlorid und oral über die Zeit aufgetragen, wobei mit dem Zeitpunkt 0 Referenzwerte vorangestellt sind. Aus Tabelle B ist hiebei der rasche diastolische Druckanstieg bei sublingualer Verabreichung als Aerosol ersichtlich, wohingegen aus Tabelle C eine Steigerung des diastolischen Drucks frühestens nach Ablauf von 15 min entnommen werden kann.

NCC(O)c1cccc(O)c1 (stereo not shown) [C, 1-(3'-Hydroxyphenyl)-2-aminoäthanol-hydrochlorid]
Steigerung des diastolischen Drucks (time of onset): ≥ 15 min
Diastole (1'): 8,53 kPa
Puls (1'): 64 min⁻¹
Systole (1'): 14,40 kPa
Diastole (3'): 8,67 kPa
Puls (3'): 66 min⁻¹
Systole (3'): 14,00 kPa
Diastole (5'): 8,53 kPa
Puls (5'): 71 min⁻¹
Systole (5'): 14,27 kPa
Diastole (7'): 8,53 kPa
Puls (7'): 68 min⁻¹
Systole (7'): 14,40 kPa
Diastole (10'): 8,80 kPa
Puls (10'): 66 min⁻¹
Systole (10'): 14,67 kPa
Diastole (12'): 8,80 kPa
Puls (12'): 68 min⁻¹
Systole (12'): 13,87 kPa
Diastole (15'): 8,67 kPa
Puls (15'): 77 min⁻¹
Systole (15'): 14,40 kPa
Diastole (20'): 9,33 kPa
Puls (20'): 52 min⁻¹
Systole (20'): 14,93 kPa
Diastole (25'): 8,80 kPa
Puls (25'): 67 min⁻¹
Systole (25'): 13,73 kPa
Diastole (30'): 9,60 kPa
Puls (30'): 69 min⁻¹
Systole (30'): 14,27 kPa
